In patent US10323022B2, “Pyrrolidinyl urea, pyrrolidinyl thiourea and pyrrolidinyl guanidine compounds as TrkA kinase inhibitors” (Array BioPharma Inc., priority 2011, dated 2019):
Where a name gives a salt, the structure may show the parent alone.

The molecules below were run against TrkA (Homo sapiens (Human), UniProt P04629) (assay: TrkA Omnia Assay). Conditions: averaged IC50; 20 nM enzyme, 500 μM ATP, 10 μM peptide substrate.
Format: biochemical
Method in brief: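 Recombinant TrkA (20 nM) preincubated 10 min at ambient temperature with compound, then Omnia Tyr Peptide #4 (10 μM) and ATP (500 μM) added in 25 mM MOPS pH 7.5, 5 mM MgCl2, 0.005% Triton X-100. Fluorescence (ex 360/em 485 nm) followed continuously for 70 min; IC50 from initial rates by 4- or 5-parameter logistic fit.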

TrkA, sequence (P04629 33-796): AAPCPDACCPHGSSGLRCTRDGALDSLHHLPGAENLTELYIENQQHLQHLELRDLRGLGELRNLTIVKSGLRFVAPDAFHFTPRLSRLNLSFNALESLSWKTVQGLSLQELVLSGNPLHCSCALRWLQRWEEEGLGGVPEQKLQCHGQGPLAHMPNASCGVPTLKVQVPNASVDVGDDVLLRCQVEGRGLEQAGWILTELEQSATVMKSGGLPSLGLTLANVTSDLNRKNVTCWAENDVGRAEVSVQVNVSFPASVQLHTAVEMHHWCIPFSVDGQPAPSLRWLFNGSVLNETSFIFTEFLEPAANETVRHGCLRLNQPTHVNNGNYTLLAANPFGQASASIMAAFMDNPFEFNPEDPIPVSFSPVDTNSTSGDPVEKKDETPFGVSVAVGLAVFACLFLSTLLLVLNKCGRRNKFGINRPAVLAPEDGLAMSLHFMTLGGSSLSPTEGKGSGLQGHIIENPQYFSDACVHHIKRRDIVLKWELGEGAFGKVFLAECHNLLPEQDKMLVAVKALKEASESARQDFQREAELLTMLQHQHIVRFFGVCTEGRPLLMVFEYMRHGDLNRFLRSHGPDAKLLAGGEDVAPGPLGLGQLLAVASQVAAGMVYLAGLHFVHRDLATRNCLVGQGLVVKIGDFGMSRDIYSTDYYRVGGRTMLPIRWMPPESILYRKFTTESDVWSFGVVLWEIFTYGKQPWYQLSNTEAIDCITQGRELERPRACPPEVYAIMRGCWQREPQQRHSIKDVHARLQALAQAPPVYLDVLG

| IC50 [nM] | SMILES |
| --- | --- |
| < 100 | CCNC(=O)COc1nn(-c2ccccc2)c(NC(=O)N[C@@H]2CN(CCOC)C[C@H]2c2ccc(F)c(F)c2)c1C [Example 541, 2-((5-(3-((3S,4R)-4-(3,4-difluorophenyl)-1-(2-methoxyethyl)pyrrolidin-3-yl)ureido)-4-methyl-1-phenyl-1H-pyrazol-3-yl)oxy)-N-ethylacetamide] |
| < 100 | CCc1c(OCC(C)(C)O)nn(-c2ccccc2)c1NC(=O)N[C@@H]1CN(CCOC)C[C@H]1c1ccc(F)c(F)c1 [Example 542, 1-((3S,4R)-4-(3,4-difluorophenyvl)-1-(2-methoxyethyl)pyrrolidin-3-yl)-3-(4-ethyl-3-(2-hydroxy-2-methylpropoxy)-1-phenyl-1H-pyrazol-5-yl)urea] |
| < 100 | COCCN1C[C@@H](NC(=O)Nc2c(C)c(OCCN)nn2-c2ccccc2)[C@H](c2ccc(F)c(F)c2)C1 [Example 543, 1-(3-(2-aminoethoxy)-4-methyl-1-phenyl-1H-pyrazol-5-yl)-3-((3S,4R)-4-(3,4-difluorophenyl)-1-(2-methoxyethyl)pyrrolidin-3-yl)urea] |
| < 100 | COCCN1C[C@@H](NC(=O)Nc2c(C)c(OCCNS(C)(=O)=O)nn2-c2ccccc2)[C@H](c2ccc(F)c(F)c2)C1 [Example 544, N-(2-((5-(3-((3S,4R)-4-(3,4-difluorophenyl)-1-(2-methoxyethyl)pyrrolidin-3-yl)ureido)-4-methyl-1-phenyl-1H-pyrazol-3-yl)oxy)ethyl)methanesulfonamide] |
| < 100 | COCCN1C[C@@H](NC(=O)Nc2c(C)c(OCCNC(C)=O)nn2-c2ccccc2)[C@H](c2ccc(F)c(F)c2)C1 [Example 545, N-(2-((5-(3-((3S,4R)-4-(3,4-difluorophenyl)-1-(2-methoxyethyl)pyrrolidin-3-yl)ureido)-4-methyl-1-phenyl-1H-pyrazol-3-yl)oxy)ethyl)acetamide] |
| < 100 | COCCN1C[C@@H](NC(=O)Nc2c(C)c(OCCN3CCN(C(C)=O)CC3)nn2-c2ccccc2)[C@H](c2ccc(F)c(F)c2)C1 [Example 546, 1-(3-(2-(4-acetylpiperazin-1-yl)ethoxy)-4-methyl-1-phenyl-1H-pyrazol-5-yl)-3-((3S,4R)-4-(3,4-difluorophenyl)-1-(2-methoxyethyl)pyrrolidin-3-yl)urea] |
| < 100 | COCCN1C[C@@H](NC(=O)Nc2c(C)c(OCC(N)=O)nn2-c2ccccc2)[C@H](c2ccc(F)c(F)c2)C1 [Example 547, 2-((5-(3-((3S,4R)-4-(3,4-difluorophenyl)-1-(2-methoxyethyl)pyrrolidin-3-yl)ureido)-4-methyl-1-phenyl-1H-pyrazol-3-yl)oxy)acetamide] |
| 100 to 1000 | CCOc1nn(-c2ccccc2)c(NC(=O)N[C@@H]2CN(CCOC)C[C@H]2c2ccc(F)c(F)c2)c1NC(=O)C(F)(F)F [Example 548, N-(5-(3-((3S,4R)-4-(3,4-difluorophenyl)-1-(2-methoxyethyl)pyrrolidin-3-yl)ureido)-3-ethoxy-1-phenyl-1H-pyrazol-4-yl)-2,2,2-trifluoroacetamide] |
| < 100 | CCOc1nn(-c2ccccc2)c(NC(=O)N[C@@H]2CN(CCOC)C[C@H]2c2ccc(F)c(F)c2)c1N [Example 549, 1-(4-amino-3-ethoxy-1-phenyl-1H-pyrazol-5-yl)-3-((3S,4R)-4-(3,4-difluorophenyl)-1-(2-methoxyethyl)pyrrolidin-3-yl)urea] |
| < 100 | CCOc1nn(-c2ccccc2)c(NC(=O)N[C@@H]2CN(CCOC)C[C@H]2c2ccc(F)c(F)c2)c1CCO [Example 550, 1-((3S,4R)-4-(3,4-difluorophenyvl)-1-(2-methoxyethyl)pyrrolidin-3-yl)-3-(3-ethoxy-4-(2-hydroxyethyl)-1-phenyl-1H-pyrazol-5-yl)urea] |
| < 100 | COCCN1C[C@@H](NC(=O)Nc2c(C)c(OCCN3CCN(C)CC3)nn2-c2ccccc2)[C@H](c2ccc(F)c(F)c2)C1 [Example 551, 1-((3S,4R)-4-(3,4-difluorophenyl)-1-(2-methoxyethyl)pyrrolidin-3-yl)-3-(4-methyl-3-(2-(4-methylpiperazin-1-yl)ethoxy)-1-phenyl-1H-pyrazol-5-yl)urea trihydrochloride] |
| < 100 | COCCN1C[C@@H](NC(=O)Nc2c(C)c(OCC(=O)N3CCOCC3)nn2-c2ccccc2)[C@H](c2ccc(F)c(F)c2)C1 [Example 552, 1-((3S,4R)-4-(3,4-difluorophenyvl)-1-(2-methoxyethyl)pyrrolidin-3-yl)-3-(4-methyl-3-(2-morpholino-2-oxoethoxy)-1-phenyl-1H-pyrazol-5-yl)urea] |
| 100 to 1000 | COCCN1C[C@@H](NC(=O)Nc2c(Br)c(C(=O)O)nn2-c2ccccc2)[C@H](c2ccc(F)c(F)c2)C1 [Example 553, 4-bromo-5-(3-((3S,4R)-4-(3,4-difluorophenyl)-1-(2-methoxyethyl)pyrrolidin-3-yl)ureido)-1-phenyl-1H-pyrazole-3-carboxylic acid] |
| < 100 | CNC(=O)c1nn(-c2ccccc2)c(NC(=O)N[C@@H]2CN(CCOC)C[C@H]2c2ccc(F)c(F)c2)c1Br [Example 554, 4-bromo-5-(3-((3S,4R)-4-(3,4-difluorophenyl)-1-(2-methoxyethyl)pyrrolidin-3-yl)ureido)-N-methyl-1-phenyl-1H-pyrazole-3-carboxamide] |
| < 100 | COCCN1C[C@@H](NC(=O)Nc2c(Br)c(C(=O)NOC)nn2-c2ccccc2)[C@H](c2ccc(F)c(F)c2)C1 [Example 555, 4-bromo-5-(3-((3S,4R)-4-(3,4-difluorophenyl)-1-(2-methoxyethyl)pyrrolidin-3-yl)ureido)-N-methoxy-1-phenyl-1H-pyrazole-3-carboxamide] |
| < 100 | COCCN1C[C@@H](NC(=O)Nc2c(Cl)c(-c3cnn(CCOC)c3)nn2-c2ccccc2)[C@H](c2ccc(F)c(F)c2)C1 [Example 556, 1-(4-chloro-1′-(2-methoxyethyl)-1-phenyl-1H, 1′H-[3,4′-bipyrazol]-5-yl)-3-((3S,4R)-4-(3,4-difluorophenyl)-1-(2-methoxyethyl)pyrrolidin-3-yl)urea] |
| < 100 | COCCN1C[C@@H](NC(=O)Nc2c(C)c(OC[C@@H](O)CO)nn2-c2ccccc2)[C@H](c2cc(F)cc(F)c2)C1 [Example 557, 1-((3S,4R)-4-(3,5-difluorophenyl)-1-(2-methoxyethyl)pyrrolidin-3-yl)-3-(3-((S)-2,3-dihydroxvpropoxy)-4-methyl-1-phenyl-1H-pyrazol-5-yl)urea] |
| < 100 | COCCN1C[C@@H](NC(=O)Nc2c(C)c(OC[C@H](O)CO)nn2-c2ccccc2)[C@H](c2cc(F)cc(F)c2)C1 [Example 558, 1-((3S,4R)-4-(3,5-difluorophenyl)-1-(2-methoxyethyl)pyrrolidin-3-yl)-3-(3-((R)-2,3-dihydroxypropoxy)-4-methyl-1-phenyl-1H-pyrazol-5-yl)urea] |
| < 100 | COCCN1C[C@@H](NC(=O)Nc2c(C)c(OC[C@H](O)CO)nn2-c2ccccc2)[C@H](c2cc(F)c(F)c(F)c2)C1 [Example 559, 1-(3-((R)-2,3-dihydroxvpropoxy)-4-methyl-1-phenyl-1H-pyrazol-5-yl)-3-((3S,4R)-1-(2-methoxyethyl)-4-(3,4,5-trifluorophenyl)pyrrolidin-3-yl)urea] |
| < 100 | COCCN1C[C@@H](NC(=O)Nc2c(C)c(OC[C@@H](O)CO)nn2-c2ccccc2)[C@H](c2cc(F)c(F)c(F)c2)C1 [Example 560, 1-(3-((S)-2,3-dihydroxvpropoxy)-4-methyl-1-phenyl-1H-pyrazol-5-yl)-3-((3S,4R)-1-(2-methoxyethyl)-4-(3,4,5-trifluorophenyl)pyrrolidin-3-yl)urea] |
